Test results reported in PubChem BioAssay (NCI).
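96-well plates; 48 h exposure; 5 concentrations. Endpoints by linear interpolation between flanking doses. Not reached: highest tested concentration assigned. GI50 is the concentration that inhibits growth by half. The concentration for full growth arrest is given as TGI.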

Columns and labels:
Experiment in all cases: DTP human tumour cell line panel, 48 h
HOP-62 NSCLC = system: HOP-62 NSCLC
MDA-MB-231 breast = system: MDA-MB-231 breast
MDA-MB-435 = system: MDA-MB-435
NCI-H226 lung = system: NCI-H226 lung
NCI-H23 lung = system: NCI-H23 lung
NCI-H460 lung = system: NCI-H460 lung
SF-295 CNS = system: SF-295 CNS
SNB-75 CNS = system: SNB-75 CNS
UACC-62 melanoma = system: UACC-62 melanoma
UO-31 renal = system: UO-31 renal

Row | Compound | TGI (HOP-62 NSCLC) [µM] | TGI (MDA-MB-231 breast) [µM] | TGI (MDA-MB-435) [µM] | TGI (NCI-H226 lung) [µM] | TGI (NCI-H23 lung) [µM] | TGI (NCI-H460 lung) [µM] | TGI (SF-295 CNS) [µM] | TGI (SNB-75 CNS) [µM] | TGI (UACC-62 melanoma) [µM] | TGI (UO-31 renal) [µM] | GI50 (HOP-62 NSCLC) [µM] | GI50 (MDA-MB-231 breast) [µM] | GI50 (MDA-MB-435) [µM] | GI50 (NCI-H226 lung) [µM] | GI50 (NCI-H23 lung) [µM] | GI50 (NCI-H460 lung) [µM] | GI50 (SF-295 CNS) [µM] | GI50 (SNB-75 CNS) [µM] | GI50 (UACC-62 melanoma) [µM] | GI50 (UO-31 renal) [µM]
1 | COc1cc(Oc2nc3ccccc3nc2C(=O)O)cc(OC)c1OC | > 100 | > 100 | > 100 | > 100 | > 100 | > 100 | > 100 | > 100 | > 100 | > 100 |  |  |  |  |  |  |  |  |  | 
2 | CC1(C)C2CCC1(CS(=O)(=O)Nc1ccccc1)C(=O)C2 (stereo not given) | > 100 | > 100 | > 100 | > 100 | > 100 | > 100 | > 100 | > 100 | > 100 | > 100 |  |  |  |  |  |  |  |  |  | 
3 | COC(=O)c1c(OC(C)=O)ccc2c1c1c(OC(C)=O)c3ccccc3c(OC(C)=O)c1n2Cc1cc(OC)cc(OC)c1 | > 100 | > 100 | 78.3 | > 100 | > 100 | > 100 | > 100 | 54.3 | > 100 | > 100 |  |  |  |  |  |  |  |  |  | 
4 | O=C1Cc2c(-c3ccc(Cl)cc3)cc(-c3ccccc3)nc2-c2ccccc2N1 | 53.3 | 20.1 | > 57.1 | 44.9 | 33.8 | 10.7 | 26.6 | 14.2 | > 58.9 | 14.8 |  |  |  |  |  |  |  |  |  | 
5 | COCn1c2ccc(OC(C)=O)cc2c2c(=O)oc(C)nc21 | > 100 | > 100 | > 100 | > 100 | > 100 | > 100 | > 100 | > 100 | > 100 | > 100 |  |  |  |  |  |  |  |  |  | 
6 | CCN1CCN(C(=O)[C@]23CC[C@@H](C)[C@H](C)[C@@H]2C2=CC[C@@H]4[C@@]5(C)C/C(=C/c6cccnc6)C(=O)C(C)(C)[C@@H]5CC[C@@]4(C)[C@]2(C)CC3)CC1 | 5.86 | 3.59 | 3.49 | 4.07 | 5.91 | 3.45 | 3.05 | 8.91 | 2.96 | 2.65 | 2.43 | 1.75 | 1.7 | 1.89 | 2.13 | 1.78 | 1.63 | 1.57 | 1.51 | 1.36
7 | CCCC(Sc1nc(N)nc2nc[nH]c12)C(=O)O (stereo not given) | > 100 | > 100 | > 100 | > 100 | > 100 | > 100 | > 100 | > 100 | > 100 | > 100 |  |  |  |  |  |  |  |  |  | 
8 | C[C@]12CC[C@H]3[C@@H](CCC4=CC(=O)C=C[C@@]43O)[C@@H]1CCC2=O | > 100 | > 100 | > 100 | > 100 | > 100 | > 100 | > 100 | > 100 | > 100 | > 100 |  |  |  |  |  |  |  |  |  | 
9 | COc1cc(/C=C2\C[C@H]3[C@@H]4CC=C5C[C@@H](N6CCCC6)CC[C@]5(C)[C@H]4CC[C@]3(C)[C@H]2O)cc(OC)c1OC | 30.6 | 33.6 | 18.5 | 39.7 | 29.9 | 13.6 | 26.6 | 25.8 | 32.7 | 6.6 |  |  |  |  |  |  |  |  |  | 
10 | O=S(=O)(c1cc(Cl)ccc1Cl)N1CCN(S(=O)(=O)c2cc(Cl)ccc2Cl)CC1 | > 100 | > 100 | > 100 | > 100 | 18.7 | > 100 | > 100 | > 100 | 2.48 | > 100 |  |  |  |  |  |  |  |  |  | 
11 | COCn1c(C)c(C)c2c(=O)oc(=O)[nH]c21 | > 100 | > 100 | > 100 | > 100 | > 100 | > 100 | > 100 | > 100 | > 100 | > 100 |  |  |  |  |  |  |  |  |  | 
12 | Cc1c(CNc2ccc(Cl)c(C(=O)NC(CC(=O)O)C(=O)O)c2)ccc2nc(N)nc(N)c12 (stereo not given) |  | > 1000 | > 1000 | > 1000 | > 1000 | 323 | > 1000 | > 1000 | > 1000 | > 1000 | 0.557 | > 1000 |  | > 1000 | 0.357 |  |  | 122 |  | 1.86
13 | C=CCNC1=C2C[C@@H](C)C[C@@H](OC)C(OC(=O)CCCN(C)C)[C@H](C)/C=C(\C)[C@@H](OC(N)=O)[C@H](OC)/C=C\C=C(/C)C(=O)NC(=CC1=O)C2=O (stereo not given in full) | 21.5 | 17.5 | 26 | 29.4 | 20.8 | 13.9 | 20.5 | 22.9 | 26 | 26.6 |  |  |  |  |  |  |  |  |  | 
14 | Cc1c(-c2ccccc2)c(C#N)c2nnn(-c3ccccc3)c(=O)n12 | > 100 | > 100 | > 100 | > 100 | > 100 | > 100 | > 100 | > 100 | > 100 | > 100 |  |  |  |  |  |  |  |  |  | 
15 | CC(C)CC(=O)NC(Nc1ccc(S(=O)(=O)Nc2ncccn2)cc1)(C(F)(F)F)C(F)(F)F | > 100 | > 100 | > 100 | > 100 | > 100 | > 100 | > 100 | > 100 | > 100 | > 100 |  |  |  |  |  |  |  |  |  | 
16 | O=C1COC(c2ccccc2O)=NN1CCCN1CCCC1 | > 100 | > 100 | > 100 | > 100 | > 100 | > 100 | > 100 | > 100 | > 100 | > 100 |  |  |  |  |  |  |  |  |  | 
17 | CCNC(=S)N/N=C/c1cc(OC)ccc1O | > 100 | > 100 | > 100 | > 100 | > 100 | > 100 | > 100 | > 100 | > 100 | > 100 |  |  |  |  |  |  |  |  |  | 
18 | CCSSCS(C)(=O)=O | > 100 | > 100 | > 100 | 96.4 | 98 | > 100 | > 100 | 72.6 | > 100 | 24.4 |  |  |  |  |  |  |  |  |  | 
19 | CC/C(Cl)=N\OC(=O)Nc1ccc(OC)cc1 | 30.3 | 17.3 | 25.8 | 28.3 | 38.6 | 44.9 | 31.1 | 19.3 | 24.6 | 20.8 |  |  |  |  |  |  |  |  |  | 
20 | Cc1cc(NS(=O)(=O)c2ccc(NC(=O)c3ccc4nc5ccccc5c(Nc5ccc(S(=O)(=O)N=C(N)N)cc5)c4c3)cc2)no1 | 35.8 | 29.4 | 35.3 | 28.5 | 38.6 | 34.5 | 38 | 51.9 | 46.5 | 32.1 |  |  |  |  |  |  |  |  |  | 
21 | Nn1c(Cc2ccc(Cl)cc2)n[nH]c1=O | > 100 | > 100 | > 100 | > 100 | > 100 | > 100 | > 100 | > 100 | > 100 | > 100 |  |  |  |  |  |  |  |  |  | 
22 | CCN(CC)CCCCCCCCNc1c2ccc(Cl)cc2nc2ccc(OC)cc12 | 3.13 | 3.09 | 3.74 | 3.74 | 7.25 | 2.56 | 3.95 | 3.15 | 3.22 | 4.34 | 1.4 | 1.48 | 1.87 | 1.74 | 2.28 | 0.883 | 1.68 | 1.49 | 1.8 | 1.72
23 | COc1cc(C2c3cc4c(cc3C(O)C3CCC(=O)N23)OCO4)cc(OC)c1OC (stereo not given) | > 100 | > 100 | 18 | 79.3 | > 100 | > 100 | 32.6 | > 100 | > 100 | 71.2 |  |  |  |  |  |  |  |  |  | 
24 | CC1(C)CCC[C@]2(C)[C@@H]1CC[C@@]13O[C@@H]1C1=C(CO)C(=O)O[C@]14O[C@@H]4[C@@H]23 | 34.6 | 35.9 | > 53.1 | 42.1 | 28.4 | 41 | 32.3 | 30.6 | 37.7 | 18.7 |  |  |  |  |  |  |  |  |  | 
25 | CC(=O)N1N=C(c2c(O)ccc3ccccc23)CC1C(=O)c1ccco1 (stereo not given) | > 100 | 74.6 | > 100 | > 100 | 84.6 | > 100 | > 100 | > 100 | 32.8 | > 100 |  |  |  |  |  |  |  |  |  | 
26 | Cc1nc2c(cc1C(=O)NN)c(=O)n(C)c(=O)n2C | > 100 | > 100 | > 100 | > 100 | > 100 | > 100 | > 100 | > 100 | > 100 | > 100 |  |  |  |  |  |  |  |  |  | 
27 | CSC1=Nc2ccccc2-c2nc(-c3ccccc3)cc(-c3ccccc3)c2C1 | > 100 | 41.6 | > 100 | > 100 | 33.5 | > 100 | 64.2 | 16.8 | 60.5 | 76.6 |  |  |  |  |  |  |  |  |  | 
28 | C/C(O)=C/c1nc2ccccc2nc1/C=C(/C)O | 67.1 | 53 | 59.8 | 61.3 | > 100 | 34.4 | 67.5 | 63.3 | 45.4 | 56 |  |  |  |  |  |  |  |  |  | 
29 | Cc1cccc2c1C(=O)C1(Cc3ccccc3C1=O)C2 (stereo not given) | > 100 | > 100 | > 100 | > 100 | > 100 | > 100 | > 100 | > 100 | > 100 | 96.2 |  |  |  |  |  |  |  |  |  | 
